Experimental data reported in paper PMC3375898 (Natural Product Communications, 2011).
Like-named read-outs stand apart in the source and are kept apart here.

What was measured:
Format in all cases: cell-based
[1] = Mammalian cell cytotoxicity bioassay; details: African green monkey, Vero cells (kidney)
[2] = tested on: chloroquine-resistant strain (Indochina W2) of P. falciparum; assay: Malaria bioassay, PicoGreen fluorometric antiplasmodial assay; details: Plasmodium falciparum
[3] = tested on: MCF-7 human breast cancer cells; assay: Cancer bioassay, cytotoxicity by NCI protocol
[4] = tested on: recombinant Tulahuen clone C4 of T. cruzi, intracellular amastigotes in Vero cells; assay: Chagas' disease bioassay, beta-galactosidase colorimetric assay; details: Trypanosoma cruzi, 120 h, read-out: IC50 T. cruzi

## COc1c(CC(C)O)c2c3c(CC(C)O)c(OC)c(=O)c4c(O)cc5c(c6c(cc(O)c(c1=O)c62)OCO5)c43 (stereo not shown) [Compound 1, cercosporin]
[1]
  IC50 at 4 h: 1540 ± 100 nM
[2]; W2, read-out: IC50 P. falciparum
  IC50: 1030 ± 30 nM
[3]; MCF7, read-out: IC50 MCF-7
  IC50: 4680 ± 200 nM
[4]
  IC50: 1080 ± 30 nM

## CC1CS(=O)(=O)CCN1/N=C/c1ccc([N+](=O)[O-])o1 (stereo not shown) [Nifurtimox, reference compound]
[4]
  IC50: 10000 to 16000 nM

## CCN(CC)CCCC(C)Nc1ccnc2cc(Cl)ccc12 (stereo not shown) [Chloroquine, reference compound]
[2]; W2, read-out: IC50 P. falciparum, positive control
  IC50: 80 to 100 nM

## COc1cccc2c1C(=O)c1c(O)c3c(c(O)c1C2=O)C[C@@](O)(C(=O)CO)C[C@@H]3O[C@H]1C[C@H](N)[C@H](O)[C@H](C)O1 [Adriamycin, reference compound]
[3]; MCF7, read-out: IC50 MCF-7, positive control
  IC50: 0.02 to 0.3 nM
